The target of one test is TAAR1 (Mus musculus, UniProt Q923Y8). The test can be described thus: TAAR1 reporter gene assay. The format is cell-based. As to the method:
HEK293 cells were co-transfected with TAAR expression plasmids and a cAMPdependent reporter gene encoding secreted alkaline phosphatase (CRE-SEAP). Transfected cells were incubated with urine extracts from different mammalian species, and phosphatase activity was quantified with a fluorescent substrate as a reporter for TAAR activation. […] Responses to predator odors were not observed in control cells transfected with reporter gene alone. Three other TAARs-TAAR7f, TAAR8c, and TAAR9-detected natural products common to urine of numerous mammalian species, including mouse, rat, human, and carnivores (FIG. 1B, FIG. 11). However, these receptors detect carnivore and non-carnivore urines with similar sensitivity. We reasoned that TAAR4 detected a specific chemical enriched in predator urine, and that this cue can function as a kairomone. […] Basic dichloromethane extracts of bobcat urine were separated by silica gel chromatography, and fractions analyzed with the reporter gene assay (FIG. 2A). Several chromatography fractions containing the TAAR4 activator were obtained and analyzed by mass spectrometry (FIG. 2B).
TAAR functional assays. […] SEAP activity is measured as fluorescence resulting from dephosphorylation of a substrate, 4-methylumbelliferyl phosphate. Fluorescence values were obtained using an EnVision plate reader (Perkin Elmer) and are reported directly without normalization. […]
(In general: In a reporter assay the amount or activity of a reporter protein is the signal.)

For a further test, the target named is T1, rTAAR7b (Rattus norvegicus, UniProt Q923X8).
T1 sequence (Q923X8 1-358): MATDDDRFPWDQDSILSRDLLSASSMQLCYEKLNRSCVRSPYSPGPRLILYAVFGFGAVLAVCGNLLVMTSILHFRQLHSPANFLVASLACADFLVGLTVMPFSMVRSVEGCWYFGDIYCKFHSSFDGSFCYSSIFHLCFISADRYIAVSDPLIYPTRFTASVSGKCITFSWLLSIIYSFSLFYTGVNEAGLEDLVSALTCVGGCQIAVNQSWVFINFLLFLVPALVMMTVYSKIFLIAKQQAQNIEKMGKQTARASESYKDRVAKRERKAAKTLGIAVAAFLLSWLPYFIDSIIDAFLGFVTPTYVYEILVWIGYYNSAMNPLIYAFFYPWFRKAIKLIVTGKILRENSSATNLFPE
Briefly: CRE-SEAP reporter gene assay in HEK293 cells transfected with rTAAR7b. In kind it is cell-based. The following applies: FIG. 11A, rTAAR7b did not work with a 'Rho tag' (unmodified form), EC50 ± s.e.m., 4-parameter Hill equation. On the set-up: Full Taar coding regions were cloned into pcDNA3.1; expressed in transfected cells; host or cells: HEK293. As to the method: FIG. 11 illustrates the dose-dependent responses of TAARs to amines. HEK293 cells were cotransfected with plasmids encoding CRE-SEAP and rTAARs (a) or mTAARs (b), incubated with concentrations of ligands indicated, and assayed for reporter activity (triplicates±s.d.). EC50 values (±s.e.m, bottom right) were calculated using SigmaPlot (Systat Software) and a 4-parameter Hill equation.
The following mixes (10 μM of each indicated compounds) were tested for their ability to activate rat TAARs. Mix 1: butylamine, dibutylamine, hexylamine. Mix 2: 2-aminopentane, isoamylamine, isobutylamine, isopropylamine. Mix 3: N,N-dimethylcyclohexylamine, 1-methylindole, tryptamine, phenylethylamine. Mix 4: indole, 1-methylpyrrolidine, 1-methylpiperidine, pyrrolidine. […]
Full Taar coding regions were cloned into pcDNA3.1-(Invitrogen) with or without a 5′ DNA extension of 69 bp encoding the first 20 amino acids of bovine rhodopsin followed by a cloning linker ([…]). […] Fluorescence was measured on an EnVision plate reader (Perkin Elmer) and SEAP activity graphed as relative fluorescence of a phosphatase substrate.
Here, we set out to identify agonists for additional mouse and rat TAARs. […] Transfected cells were incubated with test chemicals, and phosphatase activity was quantified with a fluorescent substrate as a reporter for TAAR activation. […]

Chain of TAAR1 (Q923Y8 whole entry, the tested form may be a part): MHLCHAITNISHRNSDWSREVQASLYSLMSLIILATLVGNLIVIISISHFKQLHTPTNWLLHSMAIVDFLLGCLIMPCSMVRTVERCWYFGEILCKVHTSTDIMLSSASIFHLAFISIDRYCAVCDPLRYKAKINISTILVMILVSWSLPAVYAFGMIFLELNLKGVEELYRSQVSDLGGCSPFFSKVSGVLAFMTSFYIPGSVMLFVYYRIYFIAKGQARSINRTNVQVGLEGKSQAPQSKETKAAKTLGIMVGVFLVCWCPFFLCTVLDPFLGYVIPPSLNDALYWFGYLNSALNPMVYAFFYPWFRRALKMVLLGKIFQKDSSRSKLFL

On to `NCCc1ccccc1` [2-phenylethylamine], for which the TAAR1 activation entry on TAAR1 is given as “did activate TAAR1”.
Turning to `CN(C)C1CCCCC1` [N,N-DIMETHYLCYCLOHEXYLAMINE, N,N-dimethylcyclohexylamine], the EC50 at rTAAR7b was found to be 33.2 ± 12.8 µM.

Usually EC50 stands for the midpoint of the concentration-response curve. A lower EC50 goes with greater potency.

The values are drawn from patent US20140221499A1, “NOVEL RODENT CONTROL AGENTS AND USES THEREOF” (priority 2011, published 2014).
